Measured values from ChEMBL document CHEMBL1148275, “Discovery of thiophene-2-carboxylic acids as potent inhibitors of HCV NS5B polymerase and HCV subgenomic RNA replication. Part 1: Sulfonamides” (Bioorg Med Chem Lett, 2004).

Tests used:
Genome polyprotein = Genome polyprotein (Hepatitis C virus genotype 1a (isolate 1) (HCV), UniProt P26664); assay: Inhibition of HCV NS5B polymerase
Huh-7 [1] = assay: Concentration required to suppress [3H]thymidine uptake by 50% in Huh-7 cells; format: functional; details: Homo sapiens
Huh-7 [2] = assay: Inhibitory concentration against Huh-7 human hepatoma cell line that supports replication of subgenomic HCV RNA replicons (replicon cell line); format: functional, cell-based

Genome polyprotein, sequence (P26664 2421-3011 limits assumed): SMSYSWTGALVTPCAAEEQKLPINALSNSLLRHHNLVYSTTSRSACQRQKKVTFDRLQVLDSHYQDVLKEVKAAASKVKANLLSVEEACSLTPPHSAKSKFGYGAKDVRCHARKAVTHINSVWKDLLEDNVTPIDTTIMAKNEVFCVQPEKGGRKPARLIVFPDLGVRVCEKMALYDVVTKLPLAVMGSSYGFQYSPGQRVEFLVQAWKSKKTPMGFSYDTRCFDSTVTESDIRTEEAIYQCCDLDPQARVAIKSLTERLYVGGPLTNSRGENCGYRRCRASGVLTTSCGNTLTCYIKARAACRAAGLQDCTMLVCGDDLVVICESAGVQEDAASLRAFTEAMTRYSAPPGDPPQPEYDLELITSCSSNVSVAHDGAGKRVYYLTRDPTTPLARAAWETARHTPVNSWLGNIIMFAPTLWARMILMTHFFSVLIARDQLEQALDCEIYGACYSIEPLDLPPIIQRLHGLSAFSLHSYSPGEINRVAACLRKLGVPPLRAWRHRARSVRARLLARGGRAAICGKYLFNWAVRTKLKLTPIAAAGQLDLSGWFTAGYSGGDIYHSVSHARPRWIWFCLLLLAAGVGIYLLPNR

Cc1ccccc1C(=O)Nc1cc(-c2ccccc2)sc1C(=O)O
IC50 (Genome polyprotein): 14 µM

Cc1cccc(S(=O)(=O)Nc2cc(-c3ccccc3)sc2C(=O)O)c1
CC50 (Huh-7 [1]): 112 µM
IC50 (Genome polyprotein): 7.4 µM
IC50 (Huh-7 [2]): 100 µM

Cc1ccccc1S(=O)(=O)Nc1cc(C(=O)O)sc1-c1ccccc1
IC50 (Genome polyprotein): > 50 µM

Cc1cc(Cl)ccc1S(=O)(=O)Nc1cc(-c2ccccc2)sc1C(=O)O
CC50 (Huh-7 [1]): 54 µM
IC50 (Genome polyprotein): 0.75 µM
IC50 (Huh-7 [2]): 13 µM

O=C(O)C(Cc1ccccc1)N(Cc1cccc(C(F)(F)F)c1)C(=O)c1ccc(Cl)cc1Cl (stereo not given)
IC50 (Genome polyprotein): 1.8 µM

O=C(Nc1ccc(Cl)cc1)Nc1cc(-c2ccccc2)sc1C(=O)O
IC50 (Genome polyprotein): > 50 µM

Cc1ccc(C(=O)Nc2cc(-c3ccccc3)sc2C(=O)O)cc1
IC50 (Genome polyprotein): 12 µM

Cc1cc(S(=O)(=O)Nc2cc(-c3ccccc3)sc2C(N)=O)c(C)cc1Cl
IC50 (Genome polyprotein): 14 µM

Cc1cc(S(=O)(=O)Nc2cc(-c3ccccc3)sc2C(=O)O)c(C)cc1Cl
CC50 (Huh-7 [1]): 80 µM
IC50 (Genome polyprotein): 5.4 µM
IC50 (Huh-7 [2]): 14 µM

O=C(Nc1cc(-c2ccccc2)sc1C(=O)O)Oc1ccc(Cl)cc1
IC50 (Genome polyprotein): 13 µM

CC(=O)c1ccc(-c2cc(NS(=O)(=O)c3ccccc3C)c(C(=O)O)s2)cc1
CC50 (Huh-7 [1]): 147 µM
IC50 (Genome polyprotein): 1.4 µM
IC50 (Huh-7 [2]): 12 µM

Cc1ccccc1S(=O)(=O)Nc1sc(-c2ccccc2)cc1C(=O)O
IC50 (Genome polyprotein): 20 µM

Cc1ccc(S(=O)(=O)Nc2cc(-c3ccccc3)sc2C(=O)O)cc1
CC50 (Huh-7 [1]): 79 µM
IC50 (Genome polyprotein): 4.6 µM
IC50 (Huh-7 [2]): 33 µM

Cc1ccc(S(=O)(=O)Nc2cc(-c3ccccc3)sc2C(=O)O)c(C)c1
CC50 (Huh-7 [1]): 57 µM
IC50 (Genome polyprotein): 1 µM

Cc1ccccc1S(=O)(=O)Nc1cc(-c2ccccc2)sc1C(=O)O
CC50 (Huh-7 [1]): 76 µM
IC50 (Genome polyprotein): 5.2 µM
IC50 (Huh-7 [2]): 24 µM

Cc1ccc(C)c(S(=O)(=O)Nc2cc(-c3ccccc3)sc2C(=O)O)c1
CC50 (Huh-7 [1]): 24 µM
IC50 (Genome polyprotein): 13 µM
IC50 (Huh-7 [2]): 11 µM

Cc1ccccc1S(=O)(=O)Nc1cc(-c2ccc(S(C)(=O)=O)cc2)sc1C(=O)O
CC50 (Huh-7 [1]): > 200 µM
IC50 (Genome polyprotein): 1.8 µM
IC50 (Huh-7 [2]): > 100 µM

CC(=O)c1ccc(-c2cc(NS(=O)(=O)c3ccc(C)cc3C)c(C(=O)O)s2)cc1
CC50 (Huh-7 [1]): 100 µM
IC50 (Genome polyprotein): 0.39 µM
IC50 (Huh-7 [2]): 8 µM

O=C(O)c1sc(-c2ccccc2)cc1NS(=O)(=O)c1ccc(Cl)cc1
CC50 (Huh-7 [1]): 92 µM
IC50 (Genome polyprotein): 4.1 µM
IC50 (Huh-7 [2]): 77 µM
